Experimental data reported in ChEMBL document CHEMBL2390918, “Cinnamides as selective small-molecule inhibitors of a cellular model of breast cancer stem cells” (Bioorg Med Chem Lett, 2013).
Calls of active or inactive are those of the source. The rule behind the calls is not given here.

Assays:
[1] = Selectivity ratio of EC50 for human CSC-like HMLE cells expressing shRNA and epithelial cadherin to EC50 for human HMLE cells expressing shRNA and GFP; assay type: ADME, cell-based; conditions: read-out: Ratio EC50
[2] = Cytotoxicity against human HMLE cells expressing shRNA and GFP after 70 to 74 hrs by Cell Titer Glo assay; assay type: cell-based
[3] = Cytotoxicity against human CSC-like HMLE cells expressing shRNA and epithelial cadherin after 70 to 74 hrs by Cell Titer Glo assay; assay type: functional, cell-based
[4] = Cytotoxicity against human HMLE cells expressing shRNA and GFP at 20 uM after 70 to 74 hrs by Cell Titer Glo assay; assay type: cell-based
[5] = system: HMLE; experiment: Cytotoxicity against human CSC-like HMLE cells expressing shRNA and epithelial cadherin at 20 uM after 70 to 74 hrs by Cell Titer Glo assay; assay type: functional, cell-based
[6] = molecular target: 5-hydroxytryptamine receptor 3A (Homo sapiens) (UniProt P46098); conditions: HEK293, 10 uM
Chain of 5-hydroxytryptamine receptor 3A (Homo sapiens) (P46098 whole entry): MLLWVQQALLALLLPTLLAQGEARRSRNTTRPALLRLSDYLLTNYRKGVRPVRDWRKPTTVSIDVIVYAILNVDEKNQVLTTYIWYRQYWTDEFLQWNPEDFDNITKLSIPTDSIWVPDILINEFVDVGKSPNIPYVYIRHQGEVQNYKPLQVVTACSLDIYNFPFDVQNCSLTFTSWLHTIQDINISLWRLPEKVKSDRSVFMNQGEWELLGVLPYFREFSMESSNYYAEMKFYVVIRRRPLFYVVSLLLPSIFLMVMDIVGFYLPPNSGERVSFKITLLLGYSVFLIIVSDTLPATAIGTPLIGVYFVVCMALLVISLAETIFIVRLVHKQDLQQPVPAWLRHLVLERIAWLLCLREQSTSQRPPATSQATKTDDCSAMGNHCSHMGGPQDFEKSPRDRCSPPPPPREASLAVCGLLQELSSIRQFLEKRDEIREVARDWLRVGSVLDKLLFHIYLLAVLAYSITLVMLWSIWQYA

[7] = Selectivity ratio of EC50 for human HMLE cells expressing shRNA and GFP to EC50 for human CSC-like HMLE cells expressing shRNA and epithelial cadherin; assay type: ADME, cell-based; conditions: read-out: Ratio EC50
[8] = molecular target: 5-hydroxytryptamine receptor 1A (Homo sapiens) (UniProt P08908); experiment: Displacement of [3H]8-OH-DPAT from human recombinant 5HT1A receptor expressed in CHOK1 cells at 10 uM after 60 mins relative to control; assay type: cell-based; conditions: CHO-K1
Chain of 5-hydroxytryptamine receptor 1A (Homo sapiens) (P08908 whole entry): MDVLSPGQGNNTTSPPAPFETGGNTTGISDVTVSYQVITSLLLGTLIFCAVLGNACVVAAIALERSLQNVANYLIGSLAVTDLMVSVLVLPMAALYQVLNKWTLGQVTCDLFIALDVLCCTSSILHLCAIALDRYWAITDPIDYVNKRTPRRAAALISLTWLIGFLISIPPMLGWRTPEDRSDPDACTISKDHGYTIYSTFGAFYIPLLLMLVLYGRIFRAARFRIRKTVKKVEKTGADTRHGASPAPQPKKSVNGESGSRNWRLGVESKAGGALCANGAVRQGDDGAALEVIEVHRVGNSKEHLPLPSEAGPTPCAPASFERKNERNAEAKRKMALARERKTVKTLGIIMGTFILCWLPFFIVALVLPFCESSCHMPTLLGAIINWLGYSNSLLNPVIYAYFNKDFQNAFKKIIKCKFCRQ

[9] = species on record: Rattus norvegicus; experiment: Displacement of [125I]Triiodothyronine from thyroid hormone receptor in Wistar rat liver at 10 uM after 18 hrs relative to control
[10] = molecular target: 5-hydroxytryptamine receptor 2B (Homo sapiens) (UniProt P41595); conditions: CHO-K1, 10 uM
Chain of 5-hydroxytryptamine receptor 2B (Homo sapiens) (P41595 whole entry): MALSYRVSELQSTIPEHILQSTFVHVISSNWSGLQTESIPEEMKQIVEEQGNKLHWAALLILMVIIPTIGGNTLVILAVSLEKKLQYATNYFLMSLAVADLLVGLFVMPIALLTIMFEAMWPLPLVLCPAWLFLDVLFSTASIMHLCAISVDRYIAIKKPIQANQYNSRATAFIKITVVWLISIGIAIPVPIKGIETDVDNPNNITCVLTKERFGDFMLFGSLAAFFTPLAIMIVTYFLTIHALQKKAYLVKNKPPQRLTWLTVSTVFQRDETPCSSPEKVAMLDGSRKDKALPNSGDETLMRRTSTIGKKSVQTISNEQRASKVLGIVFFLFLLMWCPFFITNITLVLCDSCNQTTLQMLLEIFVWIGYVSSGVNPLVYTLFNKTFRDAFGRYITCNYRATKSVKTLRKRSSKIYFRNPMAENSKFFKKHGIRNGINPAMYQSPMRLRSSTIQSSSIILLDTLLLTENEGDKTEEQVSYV

[11] = Solubility in PBS at 100 uM after 24 hrs at pH 7.4 by UPLC-MS analysis; assay type: physicochemical
[12] = Displacement of [3H]GABA from GABA transporter in Wistar rat cerebral cortex after 20 mins; assay type: tissue-based
[13] = species on record: Rattus norvegicus; experiment: Displacement of [3H]GABA from GABA transporter in Wistar rat cerebral cortex at 10 uM after 20 mins relative to control; assay type: tissue-based
[14] = molecular target: Sodium-dependent dopamine transporter (Homo sapiens) (UniProt Q01959); conditions: CHO-K1, 10 uM
Chain of Sodium-dependent dopamine transporter (Homo sapiens) (Q01959 whole entry): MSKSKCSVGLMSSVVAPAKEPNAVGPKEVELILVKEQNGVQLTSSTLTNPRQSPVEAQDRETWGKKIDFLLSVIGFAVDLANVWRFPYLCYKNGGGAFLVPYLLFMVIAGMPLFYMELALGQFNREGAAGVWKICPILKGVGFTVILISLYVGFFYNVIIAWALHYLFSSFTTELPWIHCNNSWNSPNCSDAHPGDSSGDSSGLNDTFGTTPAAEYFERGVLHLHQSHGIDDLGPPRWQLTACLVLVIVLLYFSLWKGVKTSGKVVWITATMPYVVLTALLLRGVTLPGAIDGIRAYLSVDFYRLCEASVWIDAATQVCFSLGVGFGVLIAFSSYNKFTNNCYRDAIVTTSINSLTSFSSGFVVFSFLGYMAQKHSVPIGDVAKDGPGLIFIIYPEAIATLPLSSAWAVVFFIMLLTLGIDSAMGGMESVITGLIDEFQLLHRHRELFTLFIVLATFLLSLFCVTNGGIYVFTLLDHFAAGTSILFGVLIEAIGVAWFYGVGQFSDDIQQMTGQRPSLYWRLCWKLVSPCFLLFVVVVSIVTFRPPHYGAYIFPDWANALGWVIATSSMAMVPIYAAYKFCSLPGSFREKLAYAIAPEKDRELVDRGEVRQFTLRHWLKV

[15] = molecular target: T1, Substance-P receptor (Homo sapiens, UniProt P25103); experiment: Displacement of [3H]Substance P from human recombinant substance P receptor expressed in CHO cells after 90 mins; assay type: cell-based
T1 sequence (P25103 whole entry): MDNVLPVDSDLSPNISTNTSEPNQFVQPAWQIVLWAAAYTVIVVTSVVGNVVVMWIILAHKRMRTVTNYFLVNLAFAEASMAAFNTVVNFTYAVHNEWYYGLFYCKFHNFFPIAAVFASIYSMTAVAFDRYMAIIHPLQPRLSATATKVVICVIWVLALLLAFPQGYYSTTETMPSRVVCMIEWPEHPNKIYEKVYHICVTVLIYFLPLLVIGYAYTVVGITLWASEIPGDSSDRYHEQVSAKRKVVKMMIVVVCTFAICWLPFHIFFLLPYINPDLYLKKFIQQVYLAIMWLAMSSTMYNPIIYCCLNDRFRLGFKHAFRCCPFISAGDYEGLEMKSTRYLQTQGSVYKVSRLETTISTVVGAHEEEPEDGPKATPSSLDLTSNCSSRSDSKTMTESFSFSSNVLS

[16] = molecular target: T1, Substance-P receptor; experiment: Displacement of [3H]Substance P from human recombinant substance P receptor expressed in CHO cells at 10 uM after 90 mins relative to control; assay type: cell-based
[17] = Displacement of [3H]Batrachotoxin from sodium channel site 2 in Wistar rat brain after 60 mins
[18] = species on record: Rattus norvegicus; conditions: Wistar, 10 uM

Structure (SMILES)	EC50 [3]	Activity [4]	Activity [5]	further results
CC(C)c1ccc(/C=C/C(=O)Nc2nncs2)cc1	9.97 µM	–	–	selectivity ratio [1]: 0.73; EC50 [2]: 13.6 µM
O=C(/C=C/c1ccc(C(F)(F)F)cc1)NC1=NCCS1	–	Non-toxic	inactive	–
COc1ccc(/C=C/C(=O)NC2=NCCS2)c(OC)c1	9.91 µM	Non-toxic	–	–
CC(C)c1ccc(/C=C/C(=O)N(C)C2=NCCS2)cc1	–	–	inactive	EC50 [2]: 21.1 µM
CN1[C@@H]2CC[C@H]1C[C@@H](OC(=O)c1cc(Cl)cc(Cl)c1)C2	–	–	–	inhibition [6]: 3%
O=C(/C=C/c1ccccc1Cl)NC1=NCCS1	35 µM	Non-toxic	–	–
COc1ccc(OC)c(/C=C/C(=O)NC2=NCCS2)c1	–	Non-toxic	inactive	–
O=C(/C=C/c1cccc(Cl)c1)NC1=NCCS1	15 µM	–	–	selectivity ratio [7]: 1.44; EC50 [2]: 21.5 µM
Cn1c(C(=O)NC2=NCCS2)cc2ccccc21	–	Non-toxic	inactive	–
C/C(=C\C(=O)NC1=NCCS1)c1ccc(C)cc1	–	Non-toxic	inactive	–
CC(C)c1ccc(/C=C(\C#N)C(=O)NC2=NCCS2)cc1	–	Non-toxic	inactive	–
CC(C)c1ccc(/C=C/C(=O)NC2CCCC2)cc1	123 µM	–	–	selectivity ratio [1]: 2.07; EC50 [2]: 59.6 µM
Cc1c(C(=O)NC2=NCCS2)oc2ccccc12	–	Non-toxic	inactive	–
CCN(CC)C(=O)/C=C/c1ccc(C(C)C)cc1	–	Non-toxic	inactive	–
O=C(NC1=NCCS1)c1cc2ccccc2[nH]1	–	Non-toxic	inactive	–
N#Cc1ccccc1/C=C/C(=O)NC1=NCCS1	–	Non-toxic	inactive	–
COc1cc(C(C)C)ccc1/C=C/C(=O)NC1=NCCS1	28.4 µM	Non-toxic	–	–
CC(C)Cc1ccc(/C=C/C(=O)NC2=NCCS2)cc1	0.478 µM	–	–	selectivity ratio [7]: 4.54; EC50 [2]: 2.17 µM
COc1ccc(/C=C/C(=O)NC2=NCCS2)cc1OC	–	Non-toxic	inactive	–
CC(C)(C)c1ccc(/C=C/C(=O)NC2=NCCS2)cc1	–	–	inactive	EC50 [2]: 20.6 µM

Structure (SMILES)	EC50 [3]	Activity [4]	Activity [5]	further results
CCNC(=O)/C=C/c1ccc(C(C)C)cc1	–	Non-toxic	inactive	–
O=C(/C=C/c1ccc(Cl)c(Cl)c1)NC1=NCCS1	–	Non-toxic	inactive	–
Cc1ccc(/C=C/C(=O)NC2=NCCS2)cc1	16 µM	Non-toxic	–	–
O=C(/C=C/c1ccc(Cl)cc1Cl)NC1=NCCS1	–	Non-toxic	inactive	–
O=C(/C=C/c1ccccc1)NC1=NCCS1	–	Non-toxic	inactive	–
CN1C[C@H](CNC(=O)OCc2ccccc2)C[C@@H]2c3cccc4c3c(cn4C)C[C@H]21	–	–	–	inhibition [8]: -8%
N[C@@H](Cc1cc(I)c(Oc2ccc(O)c(I)c2)c(I)c1)C(=O)O	–	–	–	inhibition [9]: 6%
Cc1cccc(/C=C/C(=O)NC2=NCCS2)c1	–	Non-toxic	inactive	–
C/C(=C\C(=O)NC1=NCCS1)c1ccc(CC(C)C)cc1	–	Non-toxic	inactive	–
CC(C)c1ccc(/C=C/C(=O)Nc2nccs2)cc1	7.26 µM	–	–	selectivity ratio [1]: 2.05; EC50 [2]: 3.55 µM
CN(C)c1ccc(/C=C/C(=O)NC2=NCCS2)cc1	27.4 µM	Non-toxic	–	–
O=C(c1ccc(F)cc1)C1CCN(CCn2c(=O)[nH]c3ccccc3c2=O)CC1	–	–	–	inhibition [10]: 42%
CC(C)c1ccc(/C=C/C(=O)Nc2ccccc2)cc1	3.28 µM	–	–	selectivity ratio [1]: 0.95; EC50 [2]: 3.44 µM
CC(C)c1ccc(/C=C/C(=O)NC2=NCCS2)cc1	50.6 µM	–	–	solubility at 24 h, 100 µM [11]: < 1 µM; selectivity ratio [1]: 21.5; EC50 [2]: 2.35 µM
O=C(/C=C/c1ccc(F)cc1)NC1=NCCS1	–	Non-toxic	inactive	–
COc1ccccc1/C=C/C(=O)NC1=NCCS1	–	–	inactive	EC50 [2]: 93.3 µM
CC(C)c1ccc(/C=C/C(=O)Nc2ncc[nH]2)cc1	–	–	inactive	EC50 [2]: 51.6 µM
N#Cc1cccc(/C=C/C(=O)NC2=NCCS2)c1	–	Non-toxic	inactive	–
O=C(O)C1=CCCN(CCON=C(c2ccccc2)c2ccccc2)C1	–	–	–	IC50 [12]: 200 nM; Ki [12]: 200 nM; inhibition [13]: -6%
COc1ccc(/C=C/C(=O)NC2=NCCS2)c(OC)c1OC	–	Non-toxic	inactive	–

Structure (SMILES)	EC50 [3]	Activity [4]	Activity [5]	further results
O=C(/C=C/c1ccc(-c2cccnc2)cc1)NC1=NCCS1	3.85 µM	–	–	selectivity ratio [7]: 1.47; EC50 [2]: 5.65 µM
Fc1ccc(C(OCCN2CCN(CCCc3ccccc3)CC2)c2ccc(F)cc2)cc1	–	–	–	inhibition [14]: 5%
N#Cc1ccc(/C=C/C(=O)NC2=NCCS2)cc1	26.9 µM	Non-toxic	–	–
CC(C)c1ccc(C#CC(=O)NC2=NCCS2)cc1	–	Non-toxic	inactive	–
CC(C)c1ccc(/C=C/C(=O)Nc2nccn2C)cc1	5.97 µM	–	–	selectivity ratio [1]: 1.28; EC50 [2]: 4.65 µM
O=C(/C=C/c1ccc(-c2ccccc2)cc1)NC1=NCCS1	0.65 µM	–	–	selectivity ratio [7]: 53.1; EC50 [2]: 34.6 µM
CC(C)c1ccc(/C=C/C(=O)O)cc1	–	Non-toxic	inactive	–
CC(C)c1ccc(CCC(=O)NC2=NCCS2)cc1	9.91 µM	Non-toxic	–	–
O=C(/C=C/c1ccc(Cl)cc1)NC1=NCCS1	13.6 µM	–	–	selectivity ratio [7]: 0.73; EC50 [2]: 9.97 µM
COc1cccc(/C=C/C(=O)NC2=NCCS2)c1	62.1 µM	–	–	EC50 [2]: 96.2 µM
COc1cc(/C=C/C(=O)NC2=NCCS2)cc(OC)c1OC	–	Non-toxic	inactive	–
Ic1ccccc1N[C@@H]1C2CCN(CC2)[C@@H]1C(c1ccccc1)c1ccccc1	–	–	–	IC50 [15]: 3.6 nM; Ki [15]: 2.6 nM; inhibition [16]: 0%
CC(C)c1ccc(/C=C/C(=O)NC2=NC(=O)CS2)cc1	27 µM	–	–	selectivity ratio [1]: 2.03; EC50 [2]: 13.3 µM
O=C(/C=C/c1cc(Cl)ccc1Cl)NC1=NCCS1	–	Non-toxic	inactive	–
COc1cc(OC(C)C)ccc1/C=C/C(=O)NC1=NCCS1	–	Non-toxic	inactive	–
CC(C)c1ccc(/C=C\C(=O)NC2=NCCS2)cc1	–	Non-toxic	inactive	–
CCCCOc1cc(C(=O)NCCN(CC)CC)c2ccccc2n1 [DIBUCAINE]	–	–	–	IC50 [17]: 610 nM; Ki [17]: 550 nM; inhibition [18]: 10%
CC(C)c1ccc(C2CC2C(=O)NC2=NCCS2)cc1 (centres undefined)	–	Non-toxic	inactive	–
Cc1ccccc1/C=C/C(=O)NC1=NCCS1	–	Non-toxic	inactive	–
